Results published in ChEMBL document CHEMBL4020724, “Selective HDAC inhibitors with potent oral activity against leukemia and colorectal cancer: Design, structure-activity relationship and anti-tumor activity study” (Eur J Med Chem, 2017).
pIC50: −log10 of the molar value. Activity calls are given as the source filed them. The calls are words filed in the database; no cut-off is given here.

Tests used:
HL-60 [1] = assay: Induction of apoptosis in human HL60 cells assessed as increase in cleaved PARP level at 5 uM after 48 hrs by Western blot analysis; type: functional, cell-based
HCT-116 [2] = assay: Antitumor activity against human HCT116 cells xenografted in BALB/c nude mouse assessed as tumor growth inhibition at 50 mg/kg/day administered via oral gavage for 16 days measured every 3 days; type: functional; settings: HCT-116, po, read-out: TGI
[3] = Inhibition of class 1 HDAC in human HL60 cells using Boc-Ac-Lys-AMC as substrate incubated for 3 hrs followed by substrate addition measured after 3 hrs by fluorescence assay; type: cell-based; settings: HL-60, 3 h
cells = settings: Homo sapiens, ES-2, 48 h
Description: Antiproliferative activity against human ES2 cells after 48 hrs by MTT assay

U-937 [4] = assay: Antitumor activity against human U937 cells xenografted in BALB/c nude mouse assessed as tumor growth inhibition at 50 mg/kg/day administered via oral gavage for 13 days measured every 3 days; type: functional; settings: U-937, po, read-out: TGI
Mus musculus [5] = assay: Toxicity in BALB/c nude mouse xenografted with human U937 cells assessed as body weight loss at 50 mg/kg/day administered via oral gavage for 13 days; settings: in vivo, 312 h
U-937 [6] = assay: Antitumor activity against human U937 cells xenografted in BALB/c nude mouse assessed as relative tumor increment ratio at 50 mg/kg/day administered via oral gavage for 13 days measured every 3 days; type: functional
HL-60 [7] = assay: Induction of apoptosis in human HL60 cells assessed as increase in cleaved caspase-3 level at 5 uM after 48 hrs by Western blot analysis; type: functional, cell-based
HCT-116 [8] = assay: Antitumor activity against human HCT116 cells xenografted in BALB/c nude mouse assessed as relative tumor increment ratio at 50 mg/kg/day administered via oral gavage for 16 days measured every 3 days; type: functional
Mus musculus [9] = assay: Toxicity in BALB/c nude mouse xenografted with human U937 cells assessed as body weight at 50 mg/kg/day administered via oral gavage for 13 days (reference value: 25.39 +/- 1.18 g); type: organism-based; settings: in vivo, 312 h
HL-60 [10] = assay: Induction of apoptosis in human HL60 cells assessed as decrease in procaspase-3 level at 5 uM after 48 hrs by Western blot analysis; type: functional, cell-based
Mus musculus [11] = assay: Toxicity in BALB/c nude mouse xenografted with human HCT116 cells assessed as body weight at 50 mg/kg/day administered via oral gavage for 16 days (reference value: 19.91 +/- 1.26 g); type: organism-based; settings: in vivo, 384 h

## Nc1ccccc1NC(=O)c1ccc(CNC(=O)OCc2cccnc2)cc1 [ENTINOSTAT]
HL-60 [1]
  Activity: Active
HCT-116 [2]
  inhibition in vivo at 50 mg/kg/day: 62%
[3]
  pIC50: 6.21
cells
  pIC50: < 4.70
U-937 [4]
  inhibition in vivo at 50 mg/kg/day: 60%
Mus musculus [5]
  Activity: Toxic
U-937 [6]
  T/C: 32%
HL-60 [7]
  Activity: Active
HCT-116 [8]
  T/C: 46%
Mus musculus [9]
  Activity: 19.77 g
HL-60 [10]
  Activity: Active
Mus musculus [11]
  Activity: 18.87 g
